system: Na^+-dependent Cl^−/HCO3^− exchanger (NCBE); assay: Inhibition of the Na+-dependent Cl−/HCO3− exchanger (NCBE) in human endothelial cells (pHi recovery, BCECF fluorescence, FLIPR); assay type: cell-based; conditions: 10 μM
Procedure, shortened: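 Fluorescence rise (FLIPR, 2 min, 35 °C) tracked pHi recovery in acid-loaded, BCECF-loaded ECV-304 cells after adding Na+- and HCO3−-containing buffer with 50 μM HOE 642 and graded compound doses. Inhibition was calculated against full-recovery and bicarbonate-free no-recovery controls.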

Going from `CC(C)(C)CC(=O)N(Cc1ccc(F)cc1)Cc1ccc(-c2ccccc2S(=O)(=O)NC#N)cc1` [Example 163] to `CC(=O)N(Cc1ccc(F)cc1)Cc1ccc(-c2ccccc2S(=O)(=O)NC#N)cc1` [Example 185], the “Residual activity % of the NCBE at 10 μM” value falls from 93.4% to 85.0%.

Compared with `C[C@@H](c1ccccc1)N(Cc1ccc(-c2ccccc2S(=O)(=O)NC#N)cc1)C(=O)c1ccccc1F` [Example 93], `C[C@H](c1ccccc1)N(Cc1ccc(-c2ccccc2S(=O)(=O)NC#N)cc1)C(=O)c1ccccc1F` [Example 98] is higher in “Residual activity % of the NCBE at 10 μM” value: 92.9% for the first, 98.0% for the second.

Going from `N#CNS(=O)(=O)c1ccccc1-c1ccc(CN(CCO)C(=O)CCC2CCCCC2)cc1` [Example 8] to `N#CNS(=O)(=O)c1ccccc1-c1ccc(CN(Cc2ccccc2)C(=O)CCC2CCCCC2)cc1` [Example 7], the “Residual activity % of the NCBE at 10 μM” value falls from 86.7% to 33.0%.

First: N#CNS(=O)(=O)c1ccccc1-c1ccc(CN(Cc2cccc(-c3ccccc3)c2)C(=O)CC2CCCCC2)cc1 [Example 357]
Second: COCCC(=O)N(Cc1ccc(-c2ccccc2S(=O)(=O)NC#N)cc1)Cc1cccc(-c2ccccc2)c1 [Example 327]
The “Residual activity % of the NCBE at 10 μM” value of the first is higher: 61.9% for the first, 17.4% for the second.

First: COc1ccc(CC(=O)N(CCOc2ccccc2)Cc2ccc(-c3ccccc3S(=O)(=O)NC#N)cc2)cc1 [Example 173]
Second: CC(C)(C)CC(=O)N(CCOc1ccccc1)Cc1ccc(-c2ccccc2S(=O)(=O)NC#N)cc1 [Example 160]
The “Residual activity % of the NCBE at 10 μM” value of the first is higher: 76.4% for the first, 71.6% for the second.

Going from `CN(C)c1ccc(CN(Cc2ccc(-c3ccccc3S(=O)(=O)NC#N)cc2)C(=O)Cc2ccc(Cl)cc2)cc1` [Example 149] to `N#CNS(=O)(=O)c1ccccc1-c1ccc(CN(Cc2ccc(F)cc2)C(=O)Cc2ccc(Cl)cc2)cc1` [Example 157], the “Residual activity % of the NCBE at 10 μM” value falls from 77.4% to 24.9%.

Going from `COC(=O)C(Cc1ccccc1)N(Cc1ccc(-c2ccccc2S(=O)(=O)NC#N)cc1)C(=O)Cc1ccsc1` (stereo not drawn) [Example 233] to `COC(=O)C(Cc1ccccc1)N(Cc1ccc(-c2ccccc2S(=O)(=O)NC#N)cc1)C(=O)CCCc1cccs1` (stereo not drawn) [Example 193], the “Residual activity % of the NCBE at 10 μM” value falls from 68.1% to 62.8%.

First: CN(Cc1ccc(-c2ccccc2S(=O)(=O)NC#N)cc1)C(=O)Cc1cccs1 [Example 239]
Second: CC(=O)N(CCc1cccs1)Cc1ccc(-c2ccccc2S(=O)(=O)NC#N)cc1 [Example 179]
The “Residual activity % of the NCBE at 10 μM” value of the first is lower: 56.3% for the first, 78.3% for the second.

Going from `N#CNS(=O)(=O)c1ccccc1-c1ccc(CN(Cc2ccc(Cl)cc2Cl)C(=O)Cc2ccc(O)cc2)cc1` [Example 283] to `N#CNS(=O)(=O)c1ccccc1-c1ccc(CN(Cc2cccc3ccccc23)C(=O)Cc2ccc(O)cc2)cc1` [Example 284], the “Residual activity % of the NCBE at 10 μM” value falls from 80.0% to 52.9%.

Compared with `N#CNS(=O)(=O)c1ccccc1-c1ccc(CN(CCc2ccc(S(N)(=O)=O)cc2)C(=O)Cc2cccs2)cc1` [Example 272], `N#CNS(=O)(=O)c1ccccc1-c1ccc(CN(CCc2ccc(S(N)(=O)=O)cc2)C(=O)Cc2ccccc2Cl)cc1` [Example 294] is higher in “Residual activity % of the NCBE at 10 μM” value: 65.0% for the first, 82.7% for the second.

Going from `N#CNS(=O)(=O)c1ccccc1-c1ccc(CN(Cc2nc3ccccc3[nH]2)C(=O)Cc2c[nH]c3ccccc23)cc1` [Example 208] to `N#CNS(=O)(=O)c1ccccc1-c1ccc(CN(Cc2ccccn2)C(=O)Cc2c[nH]c3ccccc23)cc1` [Example 204], the “Residual activity % of the NCBE at 10 μM” value rises from 50.7% to 52.4%.

Compared with `N#CNS(=O)(=O)c1ccccc1-c1ccc(CN(Cc2ccccc2Cl)C(=O)C(C(=O)Cc2ccccc2)c2ccccc2)cc1` (stereo not drawn) [Example 131], `Cc1ccc(CN(Cc2ccc(-c3ccccc3S(=O)(=O)NC#N)cc2)C(=O)C(C(=O)Cc2ccccc2)c2ccccc2)cc1` (stereo not drawn) [Example 135] is lower in “Residual activity % of the NCBE at 10 μM” value: 97.6% for the first, 97.4% for the second.

Compared with `N#CNS(=O)(=O)c1ccccc1-c1ccc(CN(Cc2ccccn2)C(=O)C(=O)c2cccs2)cc1` [Example 196], `N#CNS(=O)(=O)c1ccccc1-c1ccc(CN(Cc2ccccc2)C(=O)Cc2cccs2)cc1` [Example 25] is lower in “Residual activity % of the NCBE at 10 μM” value: 62.8% for the first, 16.6% for the second.

Compared with `N#CNS(=O)(=O)c1ccccc1-c1ccc(CN(Cc2nc3ccccc3[nH]2)C(=O)CCCCc2cccs2)cc1` [Example 224], `N#CNS(=O)(=O)c1ccccc1-c1ccc(CN(Cc2cccc(Cl)c2)C(=O)CCc2cccs2)cc1` [Example 290] is lower in “Residual activity % of the NCBE at 10 μM” value: 79.8% for the first, 45.8% for the second.

First: COc1ccccc1C(=O)N(Cc1ccc(-c2ccccc2S(=O)(=O)NC#N)cc1)Cc1cccc(C)c1 [Example 331]
Second: Cc1cccc(CN(Cc2ccc(-c3ccccc3S(=O)(=O)NC#N)cc2)C(=O)Cc2cccs2)c1 [Example 311]
The “Residual activity % of the NCBE at 10 μM” value of the first is higher: 37.6% for the first, 10.4% for the second.

First: N#CNS(=O)(=O)c1ccccc1-c1ccc(CN(Cc2ccccc2F)C(=O)Cc2cccs2)cc1 [Example 316]
Second: N#CNS(=O)(=O)c1ccccc1-c1ccc(CN(Cc2cccc(Cl)c2Cl)C(=O)Cc2cccs2)cc1 [Example 309]
The “Residual activity % of the NCBE at 10 μM” value of the first is lower: 14.4% for the first, 88.9% for the second.

First: CC(C)CN(Cc1ccc(-c2ccccc2S(=O)(=O)NC#N)cc1)C(=O)c1cc2ccccc2s1 [Example 72]
Second: CC(C)CN(Cc1ccc(-c2ccccc2S(=O)(=O)NC#N)cc1)C(=O)Cc1ccccc1 [Example 122]
The “Residual activity % of the NCBE at 10 μM” value of the first is lower: 86.3% for the first, 90.6% for the second.

First: N#CNS(=O)(=O)c1ccccc1-c1ccc(CN(Cc2cccc(Cl)c2)C(=O)CCS(=O)(=O)c2ccccc2)cc1 [Example 281]
Second: N#CNS(=O)(=O)c1ccccc1-c1ccc(CN(Cc2ccc(Cl)c(Cl)c2)C(=O)CCCCc2ccccc2)cc1 [Example 262]
The “Residual activity % of the NCBE at 10 μM” value of the first is higher: 68.6% for the first, 45.3% for the second.

Going from `N#CNS(=O)(=O)c1ccccc1-c1ccc(CN(Cc2ccc(Cl)c(Cl)c2)C(=O)Cc2ccccc2[N+](=O)[O-])cc1` [Example 261] to `N#CNS(=O)(=O)c1ccccc1-c1ccc(CN(Cc2ccncc2)C(=O)Cc2ccc(Cl)cc2)cc1` [Example 156], the “Residual activity % of the NCBE at 10 μM” value rises from 67.7% to 86.0%.

First: N#CNS(=O)(=O)c1ccccc1-c1ccc(CN(CC2CC2)C(=O)Cc2ccc(Cl)cc2)cc1 [Example 153]
Second: COc1ccc(CN(Cc2ccc(-c3ccccc3S(=O)(=O)NC#N)cc2)C(=O)CCC2CCCCC2)cc1 [Example 9]
The “Residual activity % of the NCBE at 10 μM” value of the first is lower: 46.1% for the first, 86.6% for the second.

Going from `N#CNS(=O)(=O)c1ccccc1-c1ccc(CN(C(=O)Cc2csc3ccccc23)C2CC2)cc1` [Example 213] to `N#CNS(=O)(=O)c1ccccc1-c1ccc(CN(C(=O)Cc2cccs2)C2CCc3ccccc32)cc1` (stereo not drawn) [Example 314], the “Residual activity % of the NCBE at 10 μM” value falls from 45.0% to 14.4%.

Compared with `N#CNS(=O)(=O)c1ccccc1-c1ccc(CN(Cc2cccs2)C(=O)C(NC(=O)OCc2ccccc2)c2ccccc2)cc1` (stereo not drawn) [Example 251], `COC(=O)C(c1ccccc1)N(Cc1ccc(-c2ccccc2S(=O)(=O)NC#N)cc1)C(=O)Cc1cccs1` (stereo not drawn) [Example 268] is lower in “Residual activity % of the NCBE at 10 μM” value: 83.9% for the first, 79.3% for the second.

Compared with `N#CNS(=O)(=O)c1ccccc1-c1ccc(CN(Cc2cccs2)C(=O)Cc2cccs2)cc1` [Example 250], `N#CNS(=O)(=O)c1ccccc1-c1ccc(CN(Cc2ccco2)C(=O)Cc2cccs2)cc1` [Example 139] is higher in “Residual activity % of the NCBE at 10 μM” value: 41.1% for the first, 48.5% for the second.

First: COCCN(Cc1ccc(-c2ccccc2S(=O)(=O)NC#N)cc1)C(=O)Cc1c[nH]c2ccccc12 [Example 203]
Second: COCCC(=O)N(Cc1ccc(-c2ccccc2S(=O)(=O)NC#N)cc1)C1CCc2ccccc21 (stereo not drawn) [Example 324]
The “Residual activity % of the NCBE at 10 μM” value of the first is lower: 30.3% for the first, 60.5% for the second.

First: N#CNS(=O)(=O)c1ccccc1-c1ccc(CN(Cc2ccccc2)C(=O)c2ccccc2)cc1 [Example 61]
Second: C[C@H](c1ccccc1)N(Cc1ccc(-c2ccccc2S(=O)(=O)NC#N)cc1)C(=O)c1cc2ccccc2s1 [Example 78]
The “Residual activity % of the NCBE at 10 μM” value of the first is lower: 56.6% for the first, 88.5% for the second.

Going from `CC(C)(C)OC(=O)C(c1ccccc1)N(Cc1ccc(-c2ccccc2S(=O)(=O)NC#N)cc1)C(=O)Cc1ccccc1Br` (stereo not drawn) [Example 275] to `C[C@@H](c1ccccc1)N(Cc1ccc(-c2ccccc2S(=O)(=O)NC#N)cc1)C(=O)Cc1cccs1` [Example 132], the “Residual activity % of the NCBE at 10 μM” value rises from 54.6% to 63.8%.

Going from `C/C=C/C(=O)N(Cc1ccc(OC)cc1)Cc1ccc(-c2ccccc2S(=O)(=O)NC#N)cc1` [Example 64] to `N#CNS(=O)(=O)c1ccccc1-c1ccc(CN(C(=O)CCOc2ccccc2)C2CCCc3ccccc32)cc1` (stereo not drawn) [Example 345], the “Residual activity % of the NCBE at 10 μM” value falls from 88.0% to 39.8%.

`CC(C)=CCCC(C)=CCN(Cc1ccc(-c2ccccc2S(=O)(=O)NC#N)cc1)C(=O)CC1CCCCC1` [Example 353] was tested, and the “Residual activity % of the NCBE at 10 μM” value was 47.9%.

same assay, conditions: 10 μM compound; human endothelial cells (ECV-304); related to 100% and 0% pHi recovery controls

With `COCCOc1cc(-c2ccccc2S(=O)(=O)NC#N)ccc1CN(Cc1ccccc1)S(=O)(=O)c1cccs1` [Example 558, 4′-{[Benzyl(thiophene-2-sulfonyl)amino]methyl}-3′-(2-methoxy)ethoxy-biphenyl-2-sulfonylcyanamide] the “Residual activity of the NCBE at 10 μM” value was 30%.

same assay, conditions: compound at 10 μM; sub-table with R7 substituent

Going from `Cc1ccc(-c2ccc(CN(Cc3ccccc3)C(=O)CC3CCCCC3)cc2)c(S(=O)(=O)NC#N)c1` [Example 545] to `Cc1ccc(-c2ccc(CN(Cc3ccc4ccccc4c3)C(=O)CC3CCCCC3)cc2)c(S(=O)(=O)NC#N)c1` [Example 547], the “Residual activity % of the NCBE at 10 μM” value rises from 70.1% to 76.5%.

Compared with `Cc1ccc(-c2ccc(CN(Cc3ccc4ccccc4c3)C(=O)Cc3ccc(Cl)cc3)cc2)c(S(=O)(=O)NC#N)c1` [Example 531], `Cc1ccc(-c2ccc(CN(Cc3cccc4ccccc34)C(=O)Cc3ccc(Cl)cc3)cc2)c(S(=O)(=O)NC#N)c1` [Example 530] is higher in “Residual activity % of the NCBE at 10 μM” value: 75.6% for the first, 89.8% for the second.
